Laboratory results published in ChEMBL document CHEMBL1136234, “Cyclohexanedione herbicides are inhibitors of rat heart acetyl-CoA carboxylase” (Bioorg Med Chem Lett, 2003).

What was measured:
Acetyl-CoA carboxylase 1 [1] = target: T1, Acetyl-CoA carboxylase 1 (Rattus norvegicus, UniProt P11497); assay: Inhibitory concentration against rat heart ACC by the carboxylation of acetyl-CoA with [14C]-HCO3- to form [14C]-malonyl CoA; 18-40 uM
Acetyl-CoA carboxylase 1 [2] = target: T1, Acetyl-CoA carboxylase 1; assay: Inhibitory concentration against rat heart ACC by the carboxylation of acetyl-CoA with [14C]HCO3- to form [14C]-malonyl CoA

SMILES | IC50 (Acetyl-CoA carboxylase 1 [1]) [µM] | IC50 (Acetyl-CoA carboxylase 1 [2]) [µM]
CCSC(C)CC1CC(=O)C(/C(CC)=N/OC/C=C/Cl)=C(O)C1 (stereo unspecified) [CLETHODIM] | 40 | –
C=CCO/N=C(\CCC)C1=C(O)C(C(=O)OC)C(C)(C)CC1=O (stereo unspecified) [ALLOXYDIM] | – | > 100
CCC/C(=N\OCC)C1=C(O)CC(C2CCCSC2)CC1=O (stereo unspecified) | 40 | –
CC/C(=N\OC/C=C/Cl)C1=C(O)CC(C2CCOCC2)CC1=O (stereo unspecified) [TEPRALOXYDIM] | 40 | –
CCC/C(=N\OCC)C1=C(O)CC(CC(C)SCC)CC1=O (stereo unspecified) [SETHOXYDIM] | 40 | –
CCO/N=C(\CC)C1=C(O)CC(c2c(C)cc(C)cc2C)CC1=O (stereo unspecified) [TRALKOXYDIM] | 40 | –
